Data set [1] concerns Echinochloa crus-galli var. oryzicola. Briefly: Test Example 4: field test in submerged directly seeded paddy field, Echinochloa crus-galli var. oryzicola. The data set is classed as in vivo. The settings on record: submerged direct seeding. On the procedure: (§1) In a Wagner pot of 1/500 are, paddy field soil (alluvial soil) was placed and 50 seeds of Echinochloa crus-galli var. oryzicola and 30 seeds of paddy rice were seeded in the surface layer of said soil and the submerging depth was kept at about 1 cm. When Echinochloa crus-galli var. oryzicola reached at the one leaf stage and 5-leaf stage, the emulsion of a predetermined concentration, prepared according to Example 4 was added dropwise. After 30 days from the treatment with the chemical, dry weights of Echinochloa crus-galli var. oryzicola and paddy rice were measured and the inhibition rate was calculated with reference to untreated area. [formula]
In a 10 m^2 paddy field, 30 g of Echinochloa crus-galli var. oryzicola seeds were seeded at the time of puddling and the depth of submerging was kept at 3-5 cm. 3 Days after the puddling, 50 g of paddy rice at the emergence stage (Asahi species) were seeded. When Echinochloa crus-galli var. oryzicola and paddy rice reached a 2- to 3-leaf stage, a predetermined dose of the emulsion prepared according to Example 4 was applied uniformly by means of a manual spraying machine. Test results were examined 21 days after the application of the chemicals in the similar manner as in Test Example 1.
The comparative chemical 1 used was that commercially available and the comparative chemical 2 used was prepared according to Example 4.

For data set [2] the test system is unchanged. Briefly: Test Example 1: pot test on selectivity, inhibition of Echinochloa crus-galli var. oryzicola. The class given is in vivo. To be noted: for inhibition at 750 g/ha / inhibition at 1500 g/ha / inhibition at 3000 g/ha / inhibition at 6000 g/ha / inhibition at 9000 g/ha: Echinochloa crus-galli, 720 h. The procedure, abridged:
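Paddy soil pots were sown with 50 barnyard grass and 30 rice seeds under about 1 cm flooding, and emulsion at set concentrations was dripped in at the weed's 1-leaf and 5-leaf stages. After 30 days, dry weights of weed and rice gave inhibition versus untreated.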

Data set [3] deals with paddy rice. Briefly: whole plant or invertebrate. The data set is classed as in vivo, paddy rice (Asahi species). The settings on record: in vivo. The procedure:
as §1
(§2) In a concrete pot of 1/400 are (50 cm×50 cm), paddy field soil (alluvial soil) was placed and 200 seeds of Echinochloa crus-galli var. oryzicola were seeded in 10 surface layer of said soil and the soil was submerged at about 3 cm depth. Before emergence of Echinochloa crus-galli var. oryzicola, paddy rice at 2.5-leaf stage (Asahi species) was transplanted at the rate of 8 stubs per pot, planting 3 seedlings per stub. At the one-leaf stage (3.5 leaves stage of paddy rice) and 5 leaves stage (7 leaves stage of paddy rice) of Echinochloa crus-galli var. oryzicola, the granule prepared according to Example 1 was applied. […] 30 Days after the treatment with the chemical, examination was made in the similar manner as Test Example 1 to obtain results as shown in Table 2.
(§3) In the table, as the comparative chemicals CPN, Benthiocarb, Molinate and Simetryne, those commercially available were used and the comparative chemicals A and B (as mentioned before) used were prepared according to the process for preparing the compound of this invention.

Data set [4] has as its system Echinochloa crus-galli var. oryzicola. Briefly: Test Example 3: field test in transplanted paddy field, Echinochloa crus-galli var. oryzicola. The class given is in vivo. To be noted: farm test in transplanted paddy field. The procedure: as §1
In a 10 m^2 paddy field, young seedlings of paddy rice (Asahi species) at the 2,5-leaf stage were transplanted 30 days after the puddling the submerging at the depth of 3-5 cm. 25 Days after the transplantation, when Echinochloa crus-galli var. oryzicola reached 4-leaf stage, a predetermined dose of the granule prepared according to Example 1 was applied. Test results were examined 60 days after the transplantation of paddy rice in the similar manner as in Test Example 1.
Comparative chemicals used were all those commercially available and in the case of the comparative chemical 2, CNP was applied 3 days after the transplantation of paddy rice and after 25 days a mixture of Benthiocarb and Simetryne was applied.

For data set [5], the system named is paddy rice. Briefly: Test Example 1: pot test on selectivity, inhibition of paddy rice. The data set is classed as in vivo. To be noted: for inhibition at 750 g/ha / inhibition at 1500 g/ha / inhibition at 3000 g/ha / inhibition at 6000 g/ha / inhibition at 9000 g/ha: Oryza sativa, 720 h. A digest of the protocol: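 Alluvial paddy soil in pots sown with Echinochloa crus-galli var. oryzicola (50 seeds) and paddy rice (30 seeds), submerged about 1 cm. Dry weights taken 30 days after chemical treatment; inhibition rate calculated relative to untreated area.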

Data set [6] deals with Echinochloa crus-galli var. oryzicola. Briefly: Test Example 2: concrete pot test on killing effect, Echinochloa crus-galli var. oryzicola. The data set is classed as in vivo. On the procedure: as §1, §2, §3
Data set [7] relates to various weeds. The settings on record: known upland herbicides; cited from earlier work.
Data set [8] relates to paddy rice. The settings on record: known upland herbicides; cited from earlier work.
Setting [9] is: versus 3-(4-(3-chloro-2-butenyloxy)phenyl)-1,1-dimethyl urea.
[10] abbreviates: read-out: Inhibition (%) by treatment at 1-leaf stage, E. crus-galli var. oryzicola.
Where [11] appears, read: read-out: Inhibition (%) by treatment at 5-leaf stage, E. crus-galli var. oryzicola.
Setting [12] is: read-out: Inhibition (%) by treatment at 1-leaf stage, paddy rice.
Where [13] appears, read: read-out: Inhibition (%) by treatment at 5-leaf stage, paddy rice.

Where two headings read alike, the source gives them in different places.

As for `CC=CCOc1ccc(NC(=O)N(C)C)cc1` [the compound of the invention, 3-(4-crotyloxyphenyl)-1,1-dimethyl urea], the “killing of Echinochloa crus-galli var. oryzicola in submerged direct seeding cultivation” value in data set [1] is on record as “selectively kill”. For the same compound, the “power for killing Echinochloa crus-galli var. oryzicola at the 5-leaf stage” value in data set [2] (as compared with CBPDU) is given as “more increased”. The “herbicidal activity against Echinochloa crus-galli var. oryzicola at 5-leaf stage” value in data set [2] (setting [9]) was “superior”. Also, the “herbicidal activity against Echinochloa crus-galli var. oryzicola” value in data set [2] (versus a compound disclosed in Japanese Pat. No. 2329/1973) is “superior herbicidal activity”. Moreover, the “Chemical injury on paddy rice” value in data set [3] is recorded as “no chemical injury on paddy rice”. Further, the “killing of Echinochloa crus-galli var. oryzicola not killed by conventional systematic treatment” value in data set [4] was “completely killed”. In addition, the “Chemical injury on paddy rice” value in data set [5] (as compared with CBPDU) is “more decreased”. For the same compound, in data set [5] (setting [9]), the chemical injury result is “superior” and the selectivity result was “selectivity over a wide range”. Moreover, the “killing of Echinochloa crus-galli var. oryzicola at 5-leaf stage” value in data set [6] (5-leaf stage) is listed as “completely kill”. Moreover, the “herbicidal activity against Echinochloa crus-galli var. oryzicola at 1-leaf stage” value in data set [6] (compared with the known herbicides) is reported as “similarly high herbicidal activity”.
As for `CON(C)C(=O)Nc1ccc(Cl)c(Cl)c1` [Linuron, 3-(3,4-dichlorophenyl)-1-methoxy-1-methyl urea], in data set [2] (setting [10]), the inhibition at 750 g/ha was found to be 82%, the inhibition at 1500 g/ha was determined as 100%, the inhibition at 3000 g/ha was determined as 100% and the inhibition at 6000 g/ha came to 100%. Moreover, the inhibition at 9000 g/ha in data set [2] (setting [10]) stood at 100%. For the same compound, in data set [2] (setting [11]), the inhibition at 750 g/ha turned out to be 72%, the inhibition at 1500 g/ha was found to be 100%, the inhibition at 3000 g/ha was 100% and the inhibition at 6000 g/ha was determined as 100%. The inhibition at 9000 g/ha in data set [2] (setting [11]) was determined as 100%. The “herbicidal activity against various weeds” value in data set [7] is on record as “strong herbicidal activity”. Also, the “chemical injury to paddy rice” value in data set [8] is listed as “strong chemical injury to paddy rice”. Besides, in data set [5] (setting [12]), the inhibition at 750 g/ha turned out to be 81%, the inhibition at 1500 g/ha was found to be 100%, the inhibition at 3000 g/ha came to 100% and the inhibition at 6000 g/ha was 100%. The inhibition at 9000 g/ha in data set [5] (setting [12]) is 100%. Also, in data set [5] (setting [13]), the inhibition at 750 g/ha is 53%, the inhibition at 1500 g/ha was determined as 100%, the inhibition at 3000 g/ha amounted to 100% and the inhibition at 6000 g/ha came to 100%. Also, the inhibition at 9000 g/ha in data set [5] (setting [13]) came out at 100%. In data set [5] (in vivo), the “selectivity between Echinochloa crus-galli var. oryzicola and paddy rice” value is “kill not only Echinochloa crus-galli var. oryzicola but also paddy rice”.
